Tests used:
[1] = tested on: Baloxavir-resistant influenza A/PR/8/34 (H1N1) (PA I38T); type: cell-based, Influenza A virus; conditions: read-out: EC50 (mean ± SD)
[2] = tested on: influenza A virus with PA I38T substitution; conditions: cited from earlier work
[3] = tested on: Oseltamivir-resistant influenza virus strain A/Weiss/43 (H1N1)-5; test: microbe, parasite or virus in culture; type: cell-based; conditions: unidentified influenza virus, H1N1, MDCK, read-out: EC50 (mean ± SD)
[4] = tested on: Oseltamivir-resistant influenza virus strain A/Weiss/43 (H1N1)-4; test: microbe, parasite or virus in culture; type: cell-based; conditions: unidentified influenza virus, H1N1, MDCK, read-out: EC50 (mean ± SD)

SMILES | EC50 [1] [nM] | EC50 change due to PA I38T substitution [2] | EC50 [3] [nM] | EC50 [4] [nM]
O=C1c2c(O)c(=O)ccn2N([C@@H]2c3ccccc3SCc3c2ccc(F)c3F)[C@@H]2COCCN12 [Baloxavir] | 89.4 ± 11.9 | 30-50 fold | – | –
CCOC(=O)C1=C[C@@H](OC(CC)CC)[C@H](NC(C)=O)[C@@H](N)C1 [Oseltamivir] | – | – | > 100000 | > 100000
O=C(O)[C@H]1C2CCC(CC2)[C@@H]1Nc1nc(-c2c[nH]c3ncc(F)cc23)ncc1F [VX-787, reference compound] | 0.434 ± 0.052 | – | 0.216 ± 0.053 | 0.234 ± 0.094
O=C(O)[C@H]1C2CCC(CC2)[C@@H]1Nc1nc(-c2n[nH]c3ncc(F)cc23)nc(C2CC2)c1F [ZSP1273] | 0.028 ± 0.013 | – | 0.017 ± 0.004 | 0.014 ± 0.006

Source: publication PMC10056986 (Pharmaceuticals, 2023)
